Measurements taken from patent publication US12180197B2, “GLP-1R modulating compounds” (Gilead Sciences, Inc., priority 2021, dated 2024).

Target: GLP-1R (Homo sapiens, UniProt P43220)
Test: GLP-1R Activation - cAMP Assay 1
Type: cell-based
Conditions: cAMP increase in CHO cells stably expressing GLP-1R; 30 minutes incubation; 10 point dose response
Experimental: GLP-1R Activation—cAMP Assay 1
GLP-1R activation by a compound of the present disclosure was quantified by measuring cAMP increase in CHO cells stably expressing GLP-1R (MultiSpan product #C1267-1a). The cells were harvested and plated in growth medium (DMEM/F-12 (Corning product #10-090-CV) supplemented with 10% FBS (HyClone product #SH30071-03), penicillin/streptomycin (Corning product #30-002CI) and 10 µg/ml puromycin (Gibco product #A11138-03)) at 1,000 cells/well in a 384-well plate (Greiner product #781080). The cells were then incubated overnight at 37° C., 5% CO2. The next day, the medium was removed and the cells were washed with DPBS (Corning product #21-031-CM) before adding the assay medium (HBSS, Corning product #21-023-CV) with 20 mM Hepes (Gibco product #15630-080) and 0.1% BSA (Rockland Immunochemicals product #BSA-1000)). Following the medium change, the cells were incubated for 1 hour at 37° C., 5% CO2. The tested GLP-1 compound was added to the cells in a 10 point dose response followed by a 30 minutes incubation at 37° C., 5% CO2. cAMP concentration increase was then detected using Cisbio's cAMP Gs Dynamic Kit (product #62AM4PEC) according to the manufacturer's protocol. The response was plotted against the log of the agonist concentration and fitted to a sigmoidal equation to determine the EC50.

GLP-1R, sequence (P43220 24-463): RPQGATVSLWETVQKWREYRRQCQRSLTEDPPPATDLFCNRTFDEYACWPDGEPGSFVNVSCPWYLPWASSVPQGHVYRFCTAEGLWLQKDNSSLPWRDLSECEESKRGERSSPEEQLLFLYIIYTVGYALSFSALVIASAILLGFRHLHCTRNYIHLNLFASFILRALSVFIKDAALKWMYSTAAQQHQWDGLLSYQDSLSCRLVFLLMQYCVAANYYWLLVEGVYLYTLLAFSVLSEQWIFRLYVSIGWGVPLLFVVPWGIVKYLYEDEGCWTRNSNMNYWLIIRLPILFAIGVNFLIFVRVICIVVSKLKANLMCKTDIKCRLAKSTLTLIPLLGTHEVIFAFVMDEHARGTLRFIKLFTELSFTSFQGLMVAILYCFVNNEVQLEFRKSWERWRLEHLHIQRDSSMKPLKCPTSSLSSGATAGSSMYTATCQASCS

| EC50 | SMILES |
| --- | --- |
| > 100 nM | COCCn1c(CN2CCC(c3cccc(OCc4c(F)c(F)c(F)c(F)c4F)n3)CC2)nc2ccc(C(=O)O)cc21 [Example 14, 1-(2-methoxyethyl)-2-((4-(6-((perfluorophenyl)methoxy)pyridin-2-yl)piperidin-1-yl)methyl)-1H-benzo[d]imidazole-6-carboxylic acid] |
| 1190 nM | COCCn1c(CN2CCC(c3cccc(OCc4ccc(S(C)(=O)=O)cc4)n3)CC2)nc2ccc(C(=O)O)cc21 [Example 9, 1-(2-methoxyethyl)-2-((4-(6-((4-(methylsulfonyl)benzyl)oxy)pyridin-2-yl)piperidin-1-yl)methyl)-1H-benzo[d]imidazole-6-carboxylic acid] |
| 4920 nM | COCCn1c(CN2CCC(c3cccc(OCc4ccc5c(c4)OCO5)n3)CC2)nc2ccc(C(=O)O)cc21 [Example 7, 2-((4-(6-(benzo[d][1,3]dioxol-5-ylmethoxy)pyridin-2-yl)piperidin-1-yl)methyl)-1-(2-methoxyethyl)-1H-benzo[d]imidazole-6-carboxylic acid] |
| 10.5 nM | COCCn1c(CN2CCC(c3cccc(OCc4ccc5c(c4)OC(F)(F)O5)n3)CC2)nc2ccc(C(=O)O)cc21 [Example 6, 2-((4-(6-((2,2-difluorobenzo[d][1,3]dioxol-5-yl)methoxy)pyridin-2-yl)piperidin-1-yl)methyl)-1-(2-methoxyethyl)-1H-benzo[d]imidazole-6-carboxylic acid] |
| 28.5 nM | COCCn1c(CN2CCC(c3cccc(OCc4cccc5c4OC(F)(F)O5)n3)CC2)nc2ccc(C(=O)O)cc21 [Example 1, 2-((4-(6-((2,2-difluorobenzo[d][1,3]dioxol-4-yl)methoxy)pyridin-2-yl)piperidin-1-yl)methyl)-1-(2-methoxyethyl)-1H-benzo[d]imidazole-6-carboxylic acid] |
| 41.3 nM | COCCn1c(CN2CCC(c3cccc(OCc4ccc5cnccc5c4)n3)CC2)nc2ccc(C(=O)O)cc21 [Example 26, 2-[[4-[6-(6-isoquinolylmethoxy)-2-pyridyl]-1-piperidyl]methyl]-3-(2-methoxyethyl)benzimidazole-5-carboxylic acid] |
| 2200 nM | COCCn1c(CN2CCC(c3cccc(OCc4c(F)cc(C(N)=O)cc4F)n3)CC2)nc2ccc(C(=O)O)cc21 [Example 37, 2-((4-(6-((4-carbamoyl-2,6-difluorobenzyl)oxy)pyridin-2-yl)piperidin-1-yl)methyl)-1-(2-methoxyethyl)-1H-benzo[d]imidazole-6-carboxylic acid] |
| 19.8 nM | COCCn1c(CN2CCC(c3cccc(OCc4cccc5scnc45)n3)CC2)nc2ccc(C(=O)O)cc21 [Example 34, 2-((4-(6-(benzo[d]thiazol-4-ylmethoxy)pyridin-2-yl)piperidin-1-yl)methyl)-1-(2-methoxyethyl)-1H-benzo[d]imidazole-6-carboxylic acid] |
| 66.9 nM | COCCn1c(CN2CCC(c3cccc(OCc4cccc(-c5noc(C)n5)c4)n3)CC2)nc2ccc(C(=O)O)cc21 [Example 10, 1-(2-methoxyethyl)-2-((4-(6-((3-(5-methyl-1,2,4-oxadiazol-3-yl)benzyl)oxy)pyridin-2-yl)piperidin-1-yl)methyl)-1H-benzo[d]imidazole-6-carboxylic acid] |
| 32.4 nM | COCCn1c(CN2CCC(c3cccc(OCc4ccc5ncccc5c4)n3)CC2)nc2ccc(C(=O)O)cc21 [Example 3, 1-(2-methoxyethyl)-2-((4-(6-(quinolin-6-ylmethoxy)pyridin-2-yl)piperidin-1-yl)methyl)-1H-benzo[d]imidazole-6-carboxylic acid] |
| 6.6 nM | COCCn1c(CN2CCC(c3cccc(OCc4ccc(C#N)c5cccnc45)n3)CC2)nc2ccc(C(=O)O)cc21 [Example 42, 2-((4-(6-((5-cyanoquinolin-8-yl)methoxy)pyridin-2-yl)piperidin-1-yl)methyl)-1-(2-methoxyethyl)-1H-benzo[d]imidazole-6-carboxylic acid] |
| 261 nM | COCCn1c(CN2CCC(c3cccc(OCc4cccc5occc45)n3)CC2)nc2ccc(C(=O)O)cc21 [Example 32, 2-((4-(6-(benzofuran-4-ylmethoxy)pyridin-2-yl)piperidin-1-yl)methyl)-1-(2-methoxyethyl)-1H-benzo[d]imidazole-6-carboxylic acid] |
| 1310 nM | COCCn1c(CN2CCC(c3cccc(OCc4cccc5c4cnn5C)n3)CC2)nc2ccc(C(=O)O)cc21 [Example 8, 1-(2-methoxyethyl)-2-((4-(6-((1-methyl-1H-indazol-4-yl)methoxy)pyridin-2-yl)piperidin-1-yl)methyl)-1H-benzo[d]imidazole-6-carboxylic acid] |
| 48.5 nM | COCCn1c(CN2CCC(c3cccc(OCc4ccc5ccncc5c4)n3)CC2)nc2ccc(C(=O)O)cc21 [Example 35, 2-((4-(6-(isoquinolin-7-ylmethoxy)pyridin-2-yl)piperidin-1-yl)methyl)-1-(2-methoxyethyl)-1H-benzo[d]imidazole-6-carboxylic acid] |
| 124 nM | COCCn1c(CN2CCC(c3cccc(OCc4ccc5cccnc5c4)n3)CC2)nc2ccc(C(=O)O)cc21 [Example 36, 1-(2-methoxyethyl)-2-((4-(6-(quinolin-7-ylmethoxy)pyridin-2-yl)piperidin-1-yl)methyl)-1H-benzo[d]imidazole-6-carboxylic acid] |
| 1260 nM | COCCn1c(CN2CCC(c3cccc(OCc4ccc(C(O)(C(F)(F)F)C(F)(F)F)cc4)n3)CC2)nc2ccc(C(=O)O)cc21 [Example 2, 2-((4-(6-((4-(1,1,1,3,3,3-hexafluoro-2-hydroxypropan-2-yl)benzyl)oxy)pyridin-2-yl)piperidin-1-yl)methyl)-1-(2-methoxyethyl)-1H-benzo[d]imidazole-6-carboxylic acid] |
| 109 nM | COCCn1c(CN2CCC(c3cccc(OCc4ccc5c(c4)C(=O)OC5)n3)CC2)nc2ccc(C(=O)O)cc21 [Example 44, 1-(2-methoxyethyl)-2-((4-(6-((3-oxo-1,3-dihydroisobenzofuran-5-yl)methoxy)pyridin-2-yl)piperidin-1-yl)methyl)-1H-benzo[d]imidazole-6-carboxylic acid] |
| 9910 nM | COCCn1c(CN2CCC(c3cccc(OCc4ccc(C(=O)N(C)C)cc4F)n3)CC2)nc2ccc(C(=O)O)cc21 [Example 11, 2-((4-(6-((4-(dimethylcarbamoyl)-2-fluorobenzyl)oxy)pyridin-2-yl)piperidin-1-yl)methyl)-1-(2-methoxyethyl)-1H-benzo[d]imidazole-6-carboxylic acid] |
| > 10000 nM | COCCn1c(CN2CCC(c3cccc(OCc4cc5cn[nH]c5cc4F)n3)CC2)nc2ccc(C(=O)O)cc21 [Example 39, 2-((4-(6-((6-fluoro-1H-indazol-5-yl)methoxy)pyridin-2-yl)piperidin-1-yl)methyl)-1-(2-methoxyethyl)-1H-benzo[d]imidazole-6-carboxylic acid] |
| 345 nM | COCCn1c(CN2CCC(c3cccc(OCc4ccc5c(c4)COC5=O)n3)CC2)nc2ccc(C(=O)O)cc21 [Example 43, 1-(2-Methoxyethyl)-2-((4-(6-((1-oxo-1,3-dihydroisobenzofuran-5-yl)methoxy)pyridin-2-yl)piperidin-1-yl)methyl)-1H-benzo[d]imidazole-6-carboxylic acid] |
| 22.2 nM | C#Cc1ccc(COc2cccc(C3CCN(Cc4nc5ccc(C(=O)O)cc5n4CCOC)CC3)n2)cc1 [Example 13, 2-((4-(6-((4-ethynylbenzyl)oxy)pyridin-2-yl)piperidin-1-yl)methyl)-1-(2-methoxyethyl)-1H-benzo[d]imidazole-6-carboxylic acid] |
